The values below come from US11447480B2, “Compound exhibiting enteropeptidase inhibitory activity” (LG CHEM, LTD., priority 2018, dated 2022).

Each structure is given as a SMILES string.

This assay has as its target Recombinant Human Enteropeptidase (Homo sapiens (Human), UniProt P98073). The assay is described as follows: Enteropeptidase Inhibition Assay. The class given is biochemical. The following applies: substrate Acetyl-Asp-Asp-Asp-Asp-Lys-AFC 30 μM, 30° C., 1 hour; Ki calculated from IC50 using Cheng-Prusoff equation. The method, then: Enteropeptidase Inhibition Assay
The inhibitory activity of the enteropeptidase inhibitor synthesized using the purified Recombinant Human Enteropeptidase and the substrate Acetyl-Asp-Asp-Asp-Asp-Lys-AFC (BioVision) was measured. 7.2 ng/mL of Enteropeptidase diluted with a buffer (20 mM Tris, 50 mM NaCl, pH 7.5) in a 96 well plate (Costar), 30 μM of Acetyl-Asp-Asp-Asp-Asp-Lys-AFC, several concentrations of Enteropeptidase inhibitors (1% DMSO concentration) were dispensed such that a final volume was 100 μL, and then the enzyme reaction was carried out at 30° C. for 1 hour. At this time, 1% DMSO, a substrate and Enteropeptidase instead of the compound were dispensed onto positive control wells, and 1% DMSO and a substrate were dispensed onto negative control wells. The enzyme reaction was […] using an excitation wavelength of 380 nm and an emission wavelength of 500 nm in a fluorescence spectrometer, and then the rate of increase in fluorescence (milli-units per min) between 20 and 60 minutes was measured.
The fluorescence measurement values reduced by the inhibitor diluted at each concentration were converted into relative values % of the positive control group (100% reactivity) and the negative control group (0% reactivity), and used to calculate IC50 values. IC50 is the concentration of the inhibitor that inhibits the enzyme activity by 50%, and was calculated using PRISM (GraphPad). Ki values were calculated from the IC50 values using Cheng-Prusoff equation.

Recombinant Human Enteropeptidase, sequence (P98073 whole entry): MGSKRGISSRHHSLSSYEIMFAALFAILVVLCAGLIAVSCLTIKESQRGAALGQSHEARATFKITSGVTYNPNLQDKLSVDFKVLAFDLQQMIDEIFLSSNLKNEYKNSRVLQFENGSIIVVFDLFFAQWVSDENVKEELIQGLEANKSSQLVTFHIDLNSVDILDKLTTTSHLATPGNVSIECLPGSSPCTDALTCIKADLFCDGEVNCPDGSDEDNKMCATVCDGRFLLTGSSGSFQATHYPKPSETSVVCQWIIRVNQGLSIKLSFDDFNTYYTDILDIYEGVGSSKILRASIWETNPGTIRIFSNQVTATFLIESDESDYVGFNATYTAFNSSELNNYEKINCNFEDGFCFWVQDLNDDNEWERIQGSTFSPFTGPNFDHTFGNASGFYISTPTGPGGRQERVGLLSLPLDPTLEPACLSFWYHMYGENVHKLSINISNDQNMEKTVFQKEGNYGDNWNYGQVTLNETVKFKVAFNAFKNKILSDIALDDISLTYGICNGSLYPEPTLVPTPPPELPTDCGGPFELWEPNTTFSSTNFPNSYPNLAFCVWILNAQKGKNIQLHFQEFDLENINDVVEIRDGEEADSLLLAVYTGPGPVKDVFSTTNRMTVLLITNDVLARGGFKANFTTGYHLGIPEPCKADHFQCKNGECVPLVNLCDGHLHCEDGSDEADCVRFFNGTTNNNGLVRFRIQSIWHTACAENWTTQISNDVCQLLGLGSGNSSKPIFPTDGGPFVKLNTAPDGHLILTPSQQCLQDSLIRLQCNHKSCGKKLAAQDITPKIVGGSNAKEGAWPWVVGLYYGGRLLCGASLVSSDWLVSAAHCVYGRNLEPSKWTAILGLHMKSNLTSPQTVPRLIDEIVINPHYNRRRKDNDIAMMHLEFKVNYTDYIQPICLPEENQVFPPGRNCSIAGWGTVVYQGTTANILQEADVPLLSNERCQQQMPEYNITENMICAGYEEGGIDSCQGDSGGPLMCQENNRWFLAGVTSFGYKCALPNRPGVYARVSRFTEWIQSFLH

Regarding `N=C(N)c1ccc(OC(=O)c2cnc(N3CCC(C(=O)O)CC3)s2)cc1` [Example 2, 1-(5-((4-Carbamimidoylphenoxy)carbonyl)thiazol-2-yl)piperidine-4-carboxylic Acid], the Ki (commonly a measure of affinity in units of concentration, obtained from inhibition or displacement) was 4.9 nM.
In the case of `COC(=O)C1CCN(c2ncc(C(=O)Oc3ccc(C(=N)N)cc3)s2)CC1` [Example 3, 4-Carbamimidoylphenyl 2-(4-(methoxycarbonyl)piperidin-1-yl)thiazole-5-carboxylate] it was 17 nM; in that of `COC(=O)C1CCN(c2ncc(C(=O)Oc3ccc(C(=N)N)cc3F)s2)CC1` [Example 4, 4-Carbamimidoyl-2-fluorophenyl 2-(4-(methoxycarbonyl)piperidin-1-yl)thiazole-5-carboxylate], 0.92 nM; in that of `COC(=O)C1CCN(c2ncc(C(=O)Oc3ccc(NC(=N)N)cc3)s2)CC1` [Example 5, 4-Guanidinophenyl 2-(4-(methoxycarbonyl)piperidin-1-yl)thiazole-5-carboxylate], 510 nM.
For the compound `N=C(N)Nc1ccc(OC(=O)c2cnc(N3CCC(C(=O)O)CC3)s2)cc1` [Example 6, 1-(5-((4-Guanidinophenoxy)carbonyl)thiazol-2-yl)piperidine-4-carboxylic Acid], the Ki was 220 nM.
`N=C(N)c1ccc(OC(=O)c2cnc(N3CCC(C(=O)O)CC3)s2)c(F)c1` [Example 7, 1-(5-((4-Carbamimidoyl-2-fluorophenoxy)carbonyl)thiazol-2-yl)piperidine-4-carboxylic Acid]: the Ki is 0.6 nM.
Next, `COC(=O)CCN(C)c1ncc(C(=O)Oc2ccc(C(=N)N)cc2)s1` [Example 8, 4-Carbamimidoylphenyl 2-((3-methoxy-3-oxopropyl)(methyl)amino)thiazole-5-carboxylate]: 28 nM; `CN(CCC(=O)O)c1ncc(C(=O)Oc2ccc(C(=N)N)cc2)s1` [Example 9]: 28 nM; `COC(=O)CCNc1ncc(C(=O)Oc2ccc(C(=N)N)cc2)s1` [Example 10, 4-Carbamimidoylphenyl 2-((3-methoxy-3-oxopropyl)amino)thiazole-5-carboxylate]: 11 nM.
Turning to `COC(=O)CCCN(C)c1ncc(C(=O)Oc2ccc(C(=N)N)cc2)s1` [Example 11, 4-Carbamimidoylphenyl 2-((4-methoxy-4-oxobutyl)(methyl)amino)thiazole-5-carboxylate], the Ki is 21 nM.
For the compound `CCN(CCC(=O)OC)c1ncc(C(=O)Oc2ccc(C(=N)N)cc2)s1` [Example 12, 4-Carbamimidoylphenyl 2-(ethyl(3-methoxy-3-oxopropyl)amino)thiazole-5-carboxylate], the Ki is 9.7 nM.
Regarding `N=C(N)c1ccc(OC(=O)c2cnc(NCCC(=O)O)s2)cc1` [Example 13], the Ki was 4.8 nM.
In the case of `CCN(CCC(=O)O)c1ncc(C(=O)Oc2ccc(C(=N)N)cc2)s1` [Example 14] it was 5.1 nM.
As for `CN(CCCC(=O)O)c1ncc(C(=O)Oc2ccc(C(=N)N)cc2)s1` [Example 15], the Ki is 5.7 nM.
For `COC(=O)C1CCN(c2ncc(C(=O)Oc3ccc(C(=N)N)cc3)s2)C1` (stereo not drawn) [Example 16, 4-Carbamimidoylphenyl 2-(3-(methoxycarbonyl)pyrrolidin-1-yl)thiazole-5-carboxylate], the Ki is 19 nM.
Next, `N=C(N)c1ccc(OC(=O)c2cnc(N3CCC(C(=O)O)C3)s2)cc1` (stereo not drawn) [Example 17, 1-(5-((4-Carbamimidoylphenoxy)carbonyl)thiazol-2-yl)pyrrolidine-3-carboxylic Acid]: 5.4 nM.
In the case of `COC(=O)C(C)(C)CN(C)c1ncc(C(=O)Oc2ccc(C(=N)N)cc2)s1` [Example 18, 4-Carbamimidoylphenyl 2-((3-methoxy-2,2-dimethyl-3-oxopropyl)(methyl)amino)thiazole-5-carboxylate] it was 8.9 nM; in that of `CN(CC(C)(C)C(=O)O)c1ncc(C(=O)Oc2ccc(C(=N)N)cc2)s1` [Example 19], 4.8 nM.
Next, `CCN(CCC(=O)OC)c1ncc(C(=O)Oc2ccc(C(=N)N)cc2F)s1` [Example 20, 4-Carbamimidoyl-2-fluorophenyl 2-(ethyl(3-methoxy-3-oxopropyl)amino) thiazole-5-carboxylate]: 2.5 nM; `COC(=O)CCCN(C)c1ncc(C(=O)Oc2ccc(C(=N)N)cc2F)s1` [Example 21, 4-Carbamimidoyl-2-fluorophenyl 2-((4-methoxy-4-oxobutyl)(methyl)amino)thiazole-5-carboxylate]: 3 nM; `CN(CCCC(=O)O)c1ncc(C(=O)Oc2ccc(C(=N)N)cc2F)s1` [Example 22, 4-((5-((4-Carbamimidoyl-2-fluorophenoxy)carbonyl)thiazol-2-yl)(methyl)amino)butanoic Acid]: 0.57 nM.
Turning to `COC(=O)C(C)(C)CNc1ncc(C(=O)Oc2ccc(C(=N)N)cc2)s1` [Example 24, 4-Carbamimidoylphenyl 2-((3-methoxy-2,2-dimethyl-3-oxopropyl)amino)thiazole-5-carboxylate], the Ki is 8.9 nM.
In the case of `N=C(N)c1ccc(OC(=O)c2cnc(N3CCC(C(=O)N[C@@H](CC(=O)O)C(=O)O)CC3)s2)cc1` [Example 25] it was 4.7 nM; in that of `N=C(N)c1ccc(OC(=O)c2cnc(N3CCC(C(=O)Nc4ccccc4)CC3)s2)cc1` [Example 27, 4-Carbamimidoylphenyl 2-(4-(phenylcarbamoyl)piperidin-1-yl)thiazole-5-carboxylate], 12 nM; in that of `N=C(N)c1ccc(OC(=O)c2cnc(N3CCC(NC(=O)c4ccccc4)CC3)s2)cc1` [Example 28, 4-Carbamimidoylphenyl 2-(4-benzamidopiperidin-1-yl)thiazole-5-carboxylate], 6.5 nM.
In the case of `COC(=O)CNC(=O)C1CCN(c2ncc(C(=O)Oc3ccc(C(=N)N)cc3)s2)CC1` [Example 29, 4-Carbamimidoylphenyl 2-(4-((2-methoxy-2-oxoethyl)carbamoyl)piperidin-1-yl)thiazole-5-carboxylate], the Ki is 18 nM.
Next, `COC(=O)CCNC(=O)C1CCN(c2ncc(C(=O)Oc3ccc(C(=N)N)cc3)s2)CC1` [Example 30, 4-Carbamimidoylphenyl 2-(4-((3-methoxy-3-oxopropyl)carbamoyl)piperidin-1-yl)thiazole-5-carboxylate]: 18 nM; `COC(=O)CCCN(C)C(=O)C1CCN(c2ncc(C(=O)Oc3ccc(C(=N)N)cc3)s2)CC1` [Example 31, 4-Carbamimidoylphenyl 2-(4-((4-methoxy-4-oxobutyl)(methyl)carbamoyl)piperidin-1-yl)thiazole-5-carboxylate]: 17 nM; `COC(=O)C(C)(C)CNC(=O)C1CCN(c2ncc(C(=O)Oc3ccc(C(=N)N)cc3)s2)CC1` [Example 32, 4-Carbamimidoylphenyl 2-(4-((3-methoxy-2,2-dimethyl-3-oxopropyl)carbamoyl)piperidin-1-yl)thiazole-5-carboxylate]: 18 nM.
As for `N=C(N)c1ccc(OC(=O)c2cnc(N3CCC(C(=O)NCC(=O)O)CC3)s2)cc1` [Example 33], the Ki was 8.2 nM.
As to `N=C(N)c1ccc(OC(=O)c2cnc(N3CCC(C(=O)NCCC(=O)O)CC3)s2)cc1` [Example 34], the Ki is 8.9 nM.
For `CN(CCCC(=O)O)C(=O)C1CCN(c2ncc(C(=O)Oc3ccc(C(=N)N)cc3)s2)CC1` [Example 35], the Ki is 9.7 nM.
As to `CC(C)(CNC(=O)C1CCN(c2ncc(C(=O)Oc3ccc(C(=N)N)cc3)s2)CC1)C(=O)O` [Example 36], the Ki was 9.7 nM.
Take `COC(=O)CNC(=O)C1CCN(c2ncc(C(=O)Oc3ccc(C(=N)N)cc3F)s2)CC1` [Example 37, 4-Carbamimidoyl-2-fluorophenyl 2-(4-((2-methoxy-2-oxoethyl)carbamoyl)piperidin-1-yl)thiazole-5-carboxylate]: the Ki is 1.8 nM.
In the case of `COC(=O)CCNC(=O)C1CCN(c2ncc(C(=O)Oc3ccc(C(=N)N)cc3F)s2)CC1` [Example 38, 4-Carbamimidoyl-2-fluorophenyl 2-(4-((3-methoxy-3-oxopropyl)carbamoyl)piperidin-1-yl)thiazole-5-carboxylate] it was 2.6 nM; in that of `COC(=O)C(C)(C)CNC(=O)C1CCN(c2ncc(C(=O)Oc3ccc(C(=N)N)cc3F)s2)CC1` [Example 39, 4-Carbamimidoyl-2-fluorophenyl 2-(4-((3-methoxy-2,2-dimethyl-3-oxopropyl)carbamoyl)piperidin-1-yl)thiazole-5-carboxylate], 2.5 nM; in that of `COc1ccc(NC(=O)C2CCN(c3ncc(C(=O)Oc4ccc(C(=N)N)cc4)s3)CC2)cc1` [Example 40, 4-carbamimidoylphenyl 2-(4-((4-methoxyphenyl)carbamoyl)piperidin-1-yl)thiazole-5-carboxylate], 9.7 nM.
In the case of `COC(=O)CCCN(C)C(=O)C1CCN(c2ncc(C(=O)Oc3ccc(C(=N)N)cc3F)s2)CC1` [Example 41, 4-Carbamimidoyl-2-fluorophenyl 2-(4-((4-methoxy-4-oxobutyl)(methyl)carbamoyl)piperidin-1-yl)thiazole-5-carboxylate] it was 1.8 nM.
Turning to `N=C(N)c1ccc(OC(=O)c2cnc(N3CCC(C(=O)NCC(=O)O)CC3)s2)c(F)c1` [Example 42, (1-(5-((4-Carbamimidoyl-2-fluorophenoxy)carbonyl)thiazol-2-yl)piperidine-4-carbonyl)glycine], the Ki is 1 nM.
